Source: the NIST ThermoML archive (doi:10.1016/j.tca.2006.08.007)
Numbers after ± are expanded uncertainties.

Test: excess molar enthalpy (molar enthalpy of mixing); xn = mol fraction of the nth substance listed
Conditions: 101 kPa, Liquid, Isoperibol calorimetry

CCCCCCO [hexan-1-ol] + CC#N
Conditions | excess molar enthalpy [kcal/mol]
288.15 K, x1 = 0.0402 | 0.105 ± 0.00143
288.15 K, x1 = 0.0809 | 0.188 ± 0.00191
288.15 K, x1 = 0.1219 | 0.2555 ± 0.00239
288.15 K, x1 = 0.1629 | 0.3074 ± 0.00263
288.15 K, x1 = 0.2038 | 0.3499 ± 0.00287
288.15 K, x1 = 0.2445 | 0.386 ± 0.00311
288.15 K, x1 = 0.2846 | 0.4183 ± 0.00335
288.15 K, x1 = 0.3241 | 0.4434 ± 0.00359
288.15 K, x1 = 0.3628 | 0.4663 ± 0.00382
288.15 K, x1 = 0.4145 | 0.4969 ± 0.00406
288.15 K, x1 = 0.4465 | 0.5029 ± 0.00406
288.15 K, x1 = 0.4819 | 0.5 ± 0.00406
288.15 K, x1 = 0.5214 | 0.4912 ± 0.00406
288.15 K, x1 = 0.5657 | 0.4775 ± 0.00382
288.15 K, x1 = 0.6156 | 0.4565 ± 0.00382
288.15 K, x1 = 0.6722 | 0.425 ± 0.00359
288.15 K, x1 = 0.7368 | 0.3812 ± 0.00335
288.15 K, x1 = 0.8114 | 0.3083 ± 0.00287
288.15 K, x1 = 0.898 | 0.191 ± 0.00215
298.15 K, x1 = 0.0405 | 0.121 ± 0.00167
298.15 K, x1 = 0.0815 | 0.2278 ± 0.00215
298.15 K, x1 = 0.1226 | 0.3093 ± 0.00263
298.15 K, x1 = 0.1639 | 0.3812 ± 0.00335
298.15 K, x1 = 0.205 | 0.4328 ± 0.00359
298.15 K, x1 = 0.2457 | 0.4742 ± 0.00382
298.15 K, x1 = 0.286 | 0.5062 ± 0.00406
298.15 K, x1 = 0.3257 | 0.5239 ± 0.0043
298.15 K, x1 = 0.3849 | 0.5428 ± 0.0043
298.15 K, x1 = 0.4227 | 0.554 ± 0.00454
298.15 K, x1 = 0.4554 | 0.5566 ± 0.00454
298.15 K, x1 = 0.4916 | 0.5557 ± 0.00454
298.15 K, x1 = 0.5321 | 0.5492 ± 0.00454
298.15 K, x1 = 0.5774 | 0.5359 ± 0.0043
298.15 K, x1 = 0.6286 | 0.5057 ± 0.00406
298.15 K, x1 = 0.6866 | 0.4701 ± 0.00382
298.15 K, x1 = 0.753 | 0.4089 ± 0.00335
298.15 K, x1 = 0.8295 | 0.309 ± 0.00263
298.15 K, x1 = 0.9187 | 0.165 ± 0.00167
298.15 K, x1 = 0.958 | 0.0932 ± 0.00143
313.15 K, x1 = 0.0408 | 0.132 ± 0.00191
313.15 K, x1 = 0.0819 | 0.238 ± 0.00239
313.15 K, x1 = 0.1233 | 0.3184 ± 0.00287
313.15 K, x1 = 0.1648 | 0.3815 ± 0.00335
313.15 K, x1 = 0.206 | 0.4398 ± 0.00359
313.15 K, x1 = 0.247 | 0.4861 ± 0.00406
313.15 K, x1 = 0.2874 | 0.5151 ± 0.0043
313.15 K, x1 = 0.3271 | 0.5387 ± 0.0043
313.15 K, x1 = 0.3888 | 0.5705 ± 0.00454
313.15 K, x1 = 0.4178 | 0.5782 ± 0.00478
313.15 K, x1 = 0.4498 | 0.5834 ± 0.00478
313.15 K, x1 = 0.4853 | 0.5841 ± 0.00478
313.15 K, x1 = 0.5248 | 0.5772 ± 0.00454
313.15 K, x1 = 0.569 | 0.5595 ± 0.00454
313.15 K, x1 = 0.6188 | 0.5311 ± 0.0043
313.15 K, x1 = 0.6752 | 0.4883 ± 0.00406
313.15 K, x1 = 0.7395 | 0.435 ± 0.00359
313.15 K, x1 = 0.8134 | 0.3535 ± 0.00311
313.15 K, x1 = 0.8993 | 0.2239 ± 0.00215
323.15 K, x1 = 0.041 | 0.136 ± 0.00191
323.15 K, x1 = 0.0823 | 0.2452 ± 0.00239
323.15 K, x1 = 0.1239 | 0.3296 ± 0.00287
323.15 K, x1 = 0.1655 | 0.4001 ± 0.00335
323.15 K, x1 = 0.2069 | 0.4541 ± 0.00382
323.15 K, x1 = 0.2479 | 0.505 ± 0.00406
323.15 K, x1 = 0.2884 | 0.5461 ± 0.00454
323.15 K, x1 = 0.3282 | 0.575 ± 0.00454
323.15 K, x1 = 0.39 | 0.626 ± 0.00502
323.15 K, x1 = 0.419 | 0.6384 ± 0.00502
323.15 K, x1 = 0.451 | 0.6417 ± 0.00526
323.15 K, x1 = 0.4865 | 0.6353 ± 0.00502
323.15 K, x1 = 0.526 | 0.6231 ± 0.00502
323.15 K, x1 = 0.5702 | 0.6001 ± 0.00478
323.15 K, x1 = 0.6199 | 0.5698 ± 0.00454
323.15 K, x1 = 0.6762 | 0.5206 ± 0.0043
323.15 K, x1 = 0.7404 | 0.4529 ± 0.00382
323.15 K, x1 = 0.8142 | 0.3561 ± 0.00311
323.15 K, x1 = 0.8997 | 0.223 ± 0.00215

CCCCCO [pentan-1-ol] + CC#N
Conditions | excess molar enthalpy [kcal/mol]
288.15 K, x1 = 0.0461 | 0.107 ± 0.00143
288.15 K, x1 = 0.0922 | 0.1965 ± 0.00191
288.15 K, x1 = 0.1379 | 0.2691 ± 0.00239
288.15 K, x1 = 0.1833 | 0.3207 ± 0.00263
288.15 K, x1 = 0.2279 | 0.364 ± 0.00311
288.15 K, x1 = 0.2717 | 0.3903 ± 0.00335
288.15 K, x1 = 0.3144 | 0.4302 ± 0.00359
288.15 K, x1 = 0.356 | 0.446 ± 0.00382
288.15 K, x1 = 0.3963 | 0.4555 ± 0.00382
288.15 K, x1 = 0.4494 | 0.4615 ± 0.00382
288.15 K, x1 = 0.4818 | 0.4632 ± 0.00382
288.15 K, x1 = 0.5174 | 0.462 ± 0.00382
288.15 K, x1 = 0.5567 | 0.4548 ± 0.00382
288.15 K, x1 = 0.6002 | 0.4412 ± 0.00359
288.15 K, x1 = 0.6486 | 0.4187 ± 0.00335
288.15 K, x1 = 0.7027 | 0.3879 ± 0.00311
288.15 K, x1 = 0.7635 | 0.3396 ± 0.00287
288.15 K, x1 = 0.8322 | 0.2734 ± 0.00239
288.15 K, x1 = 0.9103 | 0.162 ± 0.00167
298.15 K, x1 = 0.0464 | 0.121 ± 0.00167
298.15 K, x1 = 0.0927 | 0.2151 ± 0.00215
298.15 K, x1 = 0.1386 | 0.2909 ± 0.00263
298.15 K, x1 = 0.1841 | 0.3511 ± 0.00287
298.15 K, x1 = 0.2289 | 0.3958 ± 0.00335
298.15 K, x1 = 0.2728 | 0.4293 ± 0.00359
298.15 K, x1 = 0.3157 | 0.4534 ± 0.00382
298.15 K, x1 = 0.3574 | 0.4699 ± 0.00382
298.15 K, x1 = 0.4188 | 0.4794 ± 0.00382
298.15 K, x1 = 0.4833 | 0.4821 ± 0.00382
298.15 K, x1 = 0.5189 | 0.4773 ± 0.00382
298.15 K, x1 = 0.5582 | 0.4663 ± 0.00382
298.15 K, x1 = 0.6016 | 0.45 ± 0.00359
298.15 K, x1 = 0.65 | 0.4302 ± 0.00359
298.15 K, x1 = 0.7039 | 0.3977 ± 0.00335
298.15 K, x1 = 0.7645 | 0.3468 ± 0.00287
298.15 K, x1 = 0.833 | 0.2758 ± 0.00239
298.15 K, x1 = 0.9108 | 0.1673 ± 0.00167
313.15 K, x1 = 0.0467 | 0.125 ± 0.00167
313.15 K, x1 = 0.0933 | 0.2268 ± 0.00215
313.15 K, x1 = 0.1395 | 0.3064 ± 0.00263
313.15 K, x1 = 0.1852 | 0.3662 ± 0.00311
313.15 K, x1 = 0.2302 | 0.4109 ± 0.00335
313.15 K, x1 = 0.2742 | 0.4455 ± 0.00359
313.15 K, x1 = 0.3172 | 0.4708 ± 0.00382
313.15 K, x1 = 0.359 | 0.4897 ± 0.00406
313.15 K, x1 = 0.4229 | 0.5093 ± 0.00406
313.15 K, x1 = 0.4526 | 0.5127 ± 0.00406
313.15 K, x1 = 0.485 | 0.5141 ± 0.00406
313.15 K, x1 = 0.5207 | 0.5076 ± 0.00406
313.15 K, x1 = 0.5599 | 0.4957 ± 0.00406
313.15 K, x1 = 0.6033 | 0.4783 ± 0.00382
313.15 K, x1 = 0.6516 | 0.4548 ± 0.00382
313.15 K, x1 = 0.7054 | 0.4202 ± 0.00335
313.15 K, x1 = 0.7658 | 0.3728 ± 0.00311
313.15 K, x1 = 0.834 | 0.2966 ± 0.00263
313.15 K, x1 = 0.9114 | 0.185 ± 0.00191
323.15 K, x1 = 0.0469 | 0.127 ± 0.00167
323.15 K, x1 = 0.0937 | 0.233 ± 0.00239
323.15 K, x1 = 0.1401 | 0.3143 ± 0.00263
323.15 K, x1 = 0.1859 | 0.3721 ± 0.00311
323.15 K, x1 = 0.231 | 0.4204 ± 0.00359
323.15 K, x1 = 0.2752 | 0.4579 ± 0.00382
323.15 K, x1 = 0.3183 | 0.483 ± 0.00382
323.15 K, x1 = 0.3601 | 0.5098 ± 0.00406
323.15 K, x1 = 0.4006 | 0.5244 ± 0.0043
323.15 K, x1 = 0.4538 | 0.5509 ± 0.00454
323.15 K, x1 = 0.4863 | 0.5562 ± 0.00454
323.15 K, x1 = 0.5219 | 0.5504 ± 0.00454
323.15 K, x1 = 0.5611 | 0.5361 ± 0.0043
323.15 K, x1 = 0.6045 | 0.5122 ± 0.00406
323.15 K, x1 = 0.6527 | 0.4897 ± 0.00406
323.15 K, x1 = 0.7064 | 0.4529 ± 0.00382
323.15 K, x1 = 0.7667 | 0.4101 ± 0.00335
323.15 K, x1 = 0.8346 | 0.3351 ± 0.00287
323.15 K, x1 = 0.9118 | 0.2165 ± 0.00215
